Read-outs that look alike come from different tables or passages of the source.
How the values were obtained:
[1] = molecular target: T1, ESR1 (estrogen receptor 1) (Homo sapiens, UniProt P03372); assay: ATG_ERE_CIS: Factorial reporter gene assay (HepG2); assay type: cell-based; settings: HepG2
T1 construct: expressed in transfected cells; host or cells: HepG2
Outline: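 Seven concentrations per chemical, three-fold dilutions down from the MTC, were tested in HepG2 hepatoma cells. Those cells carried a multiple reporter transcription unit library, read either as cis transcription-factor-site reporters or as a trans mammalian one-hybrid panel for nuclear receptors.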

[2] = molecular target: T2, RXRB (retinoid X receptor, beta) (Homo sapiens, UniProt P28702); assay: ATG_RXRb_TRANS: Factorial reporter gene assay (HepG2); assay type: cell-based; settings: HepG2; scale not given, looks like -log10 of molar active concentration; 0 = no activity
T2 construct: expressed in transfected cells; host or cells: HepG2
T2 sequence (P28702 1-533): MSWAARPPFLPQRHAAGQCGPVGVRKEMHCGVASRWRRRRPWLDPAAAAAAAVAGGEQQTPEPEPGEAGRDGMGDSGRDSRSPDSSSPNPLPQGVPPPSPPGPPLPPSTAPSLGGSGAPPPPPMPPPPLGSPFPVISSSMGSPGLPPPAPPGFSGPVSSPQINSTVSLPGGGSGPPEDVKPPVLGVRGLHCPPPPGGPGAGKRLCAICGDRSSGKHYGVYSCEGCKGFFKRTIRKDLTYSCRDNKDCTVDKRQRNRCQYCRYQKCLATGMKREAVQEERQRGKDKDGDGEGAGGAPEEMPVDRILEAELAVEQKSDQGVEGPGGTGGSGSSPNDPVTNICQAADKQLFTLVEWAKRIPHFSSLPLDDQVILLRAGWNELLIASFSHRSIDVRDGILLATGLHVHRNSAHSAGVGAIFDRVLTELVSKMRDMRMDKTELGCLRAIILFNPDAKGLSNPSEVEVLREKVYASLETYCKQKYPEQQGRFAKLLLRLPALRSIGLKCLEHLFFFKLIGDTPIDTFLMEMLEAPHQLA
Procedure: (§1) A multiple reporter transcription unit (MRTU) library consisting of 48 transcription factor binding sites was transfected into the HepG2 human liver hepatoma cell line. In addition to the cis-acting reporter genes (CIS), a modification of the approach was used to generate a trans-system (TRANS) with a mammalian one-hybrid assay consisting of an additional 25 MRTU library reporting the activity of nuclear receptor super-family members. […] These assays were performed by Attagene Inc. (Morrisville NC) under contract to EPA.
(§2) In addition to the cis-acting reporter genes (CIS), a modification of the approach was used to generate a trans-system (TRANS) with a mammalian one-hybrid assay consisting of an additional 25 MRTU library reporting the activity of nuclear receptor super-family members. […] Chemicals were then tested in the CIS and TRANS assays at seven concentrations starting at the MTC and followed by three-fold serial dilutions. These assays were performed by Attagene Inc. (Morrisville NC) under contract to EPA. Detailed description of the methods, data and analysis methods for this dataset will be presented in a separate publication.

AR (androgen receptor) = assay: NVS_NR_hAR: Human AR 3H-Methyltrienolone (cell-free HTS); assay type: binding
From the text: (§3) These are a collection of biochemical assays measuring binding constants and enzyme inhibition values. Chemicals were initially screened at a single concentration in duplicate wells at a concentration of 10 [drawing 63] M for cytochrome P-450 assays and 25 [drawing 64] M for all others. […] These assays were run by Caliper Life Sciences (Hanover, MD) under contract to EPA. Short assay descriptions are available at: http://www.caliperls.com/products/contract-research/in-vitro/.
(§4) Cell-free HTS Assays: A collection of biochemical assays measuring binding constants and enzyme inhibition values. […] These assays were run by Caliper Life Sciences (Hanover, MD) under contract to EPA. Short assay descriptions are available at http://www.caliperls.com/products/contract-research/in-vitro/. Values for all endpoints were imported into GeneData Screener (Basel, Switzerland) and normalised to solvent controls from the same plate as the tested compounds and expressed as percent of neutral control. Concentration-response curves were fit in GeneData Screener (Basel, Switzerland) Condeseo module using the Hill equation and AC50 values were determined. […] Detailed description of the methods, data and analysis methods for this dataset are described in a separate publication.

PPARg (PPARG) = molecular target: T3, PPARg (PPARG) (Homo sapiens, UniProt P37231); assay: NVS_NR_hPPARg: Human PPARg Fluorescent Ligand (cell-free HTS); assay type: binding
T3 sequence (P37231 1-505): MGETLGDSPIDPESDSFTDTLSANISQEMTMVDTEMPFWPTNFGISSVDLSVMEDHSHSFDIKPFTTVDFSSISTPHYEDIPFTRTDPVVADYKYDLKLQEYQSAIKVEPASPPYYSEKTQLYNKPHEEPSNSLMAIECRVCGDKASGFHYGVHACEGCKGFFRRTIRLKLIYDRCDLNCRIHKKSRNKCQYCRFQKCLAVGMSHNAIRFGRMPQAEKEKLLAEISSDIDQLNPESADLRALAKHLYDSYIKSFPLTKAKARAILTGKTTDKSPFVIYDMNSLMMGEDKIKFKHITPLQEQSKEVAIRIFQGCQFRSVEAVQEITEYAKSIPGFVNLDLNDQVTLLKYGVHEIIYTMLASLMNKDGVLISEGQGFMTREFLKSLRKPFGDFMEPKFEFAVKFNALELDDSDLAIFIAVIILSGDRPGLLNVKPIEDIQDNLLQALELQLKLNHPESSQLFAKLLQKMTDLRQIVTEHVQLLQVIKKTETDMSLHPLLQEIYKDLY
From the text: as §3, §4

LXRb (NR1H2) = molecular target: T4, LXRb (NR1H2) (Homo sapiens, UniProt P55055); assay: ATG_LXRb_TRANS: Factorial reporter gene assay (HepG2); assay type: cell-based
T4 construct: expressed in transfected cells; host or cells: HepG2
T4 sequence (P55055 1-460): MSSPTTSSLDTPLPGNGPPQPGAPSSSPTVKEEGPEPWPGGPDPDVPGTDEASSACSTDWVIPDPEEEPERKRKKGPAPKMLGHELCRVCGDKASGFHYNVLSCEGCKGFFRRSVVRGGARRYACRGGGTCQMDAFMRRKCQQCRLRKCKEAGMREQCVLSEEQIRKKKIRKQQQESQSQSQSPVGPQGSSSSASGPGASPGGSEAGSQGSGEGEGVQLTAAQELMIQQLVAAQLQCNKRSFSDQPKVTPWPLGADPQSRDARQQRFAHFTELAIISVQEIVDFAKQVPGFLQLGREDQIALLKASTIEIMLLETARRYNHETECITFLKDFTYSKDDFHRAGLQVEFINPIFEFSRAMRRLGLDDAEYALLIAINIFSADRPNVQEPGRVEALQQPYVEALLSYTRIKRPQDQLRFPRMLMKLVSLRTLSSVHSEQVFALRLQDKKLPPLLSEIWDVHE
Procedure: as §1, §2

Rat Liver = settings: ref ToxRefDB, cited from earlier work
[3] = scale not given, looks like -log10 of molar active concentration, 0 = no activity
[4] = HepG2, scale not given, looks like -log10 of molar active concentration, 0 = no activity
[5] = rat chronic study, liver, neoplastic lesion, coded 6 / 0, code not explained here

T1 sequence (P03372 whole entry): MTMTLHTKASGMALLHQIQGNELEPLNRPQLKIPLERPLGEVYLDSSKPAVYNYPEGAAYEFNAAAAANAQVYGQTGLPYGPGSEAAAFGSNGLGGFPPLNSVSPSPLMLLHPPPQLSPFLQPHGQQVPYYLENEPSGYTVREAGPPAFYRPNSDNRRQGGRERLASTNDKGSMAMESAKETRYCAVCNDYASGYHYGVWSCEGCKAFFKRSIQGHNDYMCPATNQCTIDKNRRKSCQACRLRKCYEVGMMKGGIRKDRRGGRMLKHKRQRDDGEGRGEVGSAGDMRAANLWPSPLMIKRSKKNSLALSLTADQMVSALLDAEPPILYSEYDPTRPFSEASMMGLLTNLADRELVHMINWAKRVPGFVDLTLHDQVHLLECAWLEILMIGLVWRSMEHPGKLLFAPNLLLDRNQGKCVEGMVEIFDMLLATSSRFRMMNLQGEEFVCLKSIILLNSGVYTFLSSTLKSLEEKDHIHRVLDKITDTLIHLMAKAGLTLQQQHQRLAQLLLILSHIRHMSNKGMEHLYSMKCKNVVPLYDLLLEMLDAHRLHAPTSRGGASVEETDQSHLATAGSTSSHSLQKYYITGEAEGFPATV

| SMILES | ATG_ERE_CIS [1, 3] | ATG_RXRb_TRANS [2] | NVS_NR_hAR (AR (androgen receptor); [3]) | NVS_NR_hPPARg (PPARg (PPARG); [3]) | ATG_LXRb_TRANS (LXRb (NR1H2); [4]) | CHR_Rat_Liver_3_NeoplasticLesion (Rat Liver; [5]) | further results |
| --- | --- | --- | --- | --- | --- | --- | --- |
| COC(=O)c1ccccc1CS(=O)(=O)NC(=O)Nc1nc(OC)cc(OC)n1 [r33] | 0 | 0 | 0 | 0 | 4.347 | – | – |
| CC(C)N1C(=O)c2ccccc2NS1(=O)=O [r37] | 0 | 0 | 0 | 0 | 4.357 | 0 | – |
| COc1ccc(-c2ccccc2)cc1NNC(=O)OC(C)C [r38] | 0 | 0 | 0 | 0 | 0 | 0 | – |
| Cc1c(COC(=O)C2C(/C=C(\Cl)C(F)(F)F)C2(C)C)cccc1-c1ccccc1 (centres unmarked) [r39] | 0 | 0 | 0 | 0 | 0 | 0 | – |
| CC(C)(c1ccc(O)cc1)c1ccc(O)cc1 [r40] | 6.194 | 0 | 4.747 | 0 | 0 | 0 | – |
| OB(O)O [r41] | 0 | 0 | 0 | 0 | 0 | 0 | – |
| O=C(Nc1ccccc1-c1ccc(Cl)cc1)c1cccnc1Cl [r42] | 0 | 0 | 0 | 0 | 0 | 0 | – |
| CCC(C)n1c(=O)[nH]c(C)c(Br)c1=O (centres unmarked) [r43] | 0 | 0 | 0 | 0 | 0 | 0 | – |
| N#Cc1cc(Br)c(O)c(Br)c1 [r44] | 0 | 0 | 0 | 0 | 0 | 0 | – |
| CC(C)N1C(=O)N(c2ccccc2)CS/C1=N\C(C)(C)C [r45] | 0 | 0 | 0 | 0 | 0 | 0 | – |
| CCCCOCN(C(=O)CCl)c1c(CC)cccc1CC [r46] | 0 | 0 | 0 | 0 | 0 | 0 | – |
| C=CCOC(=O)C(C)(C)OC(=O)c1cc(-n2c(=O)cc(C(F)(F)F)n(C)c2=O)ccc1Cl [r47] | 0 | 0 | 0 | 0 | 0 | 0 | – |
| CCC(C)Nc1c([N+](=O)[O-])cc(C(C)(C)C)cc1[N+](=O)[O-] (centres unmarked) [r48] | 0 | 0 | 0 | 0 | 0 | – | – |
| CCSC(=O)N(CC(C)C)CC(C)C [r49] | 0 | 0 | 0 | 0 | 0 | 0 | – |
| O=C1C2CC=CCC2C(=O)N1SC(Cl)(Cl)Cl (centres unmarked) [r51] | 0 | 0 | 0 | 0 | 0 | – | – |
| CNC(=O)Oc1cccc2ccccc12 [r52] | 4.244 | 0 | 0 | – | 0 | 6 | – |
| COc1cc(Cl)c(OC)cc1Cl [r57] | 0 | 0 | 0 | 0 | 0 | – | – |
| N#Cc1c(Cl)c(Cl)c(Cl)c(C#N)c1Cl [r58] | 0 | 0 | 0 | 6.265 | 0 | – | – |
| Cc1ccccc1CO[C@@H]1C[C@@]2(C(C)C)CC[C@]1(C)O2 [r64] | – | 0 | 0 | 0 | 0 | 0 | – |
| C#CCC1=C(C)[C@H](OC(=O)[C@H]2[C@H](C=C(C)C)C2(C)C)CC1=O [r249] | – | – | – | – | – | – | NVS_NR_hAR (AR (androgen receptor)): 4.991; CHR_Rat_Liver_3_NeoplasticLesion (Rat Liver; rat, chronic study): 0 |
| CCCN(CCC)c1c([N+](=O)[O-])cc(C(F)(F)F)c(N)c1[N+](=O)[O-] [r252] | – | – | – | – | – | – | CHR_Rat_Liver_3_NeoplasticLesion (Rat Liver; rat, chronic study): 0 |
| CSc1nc(NC(C)C)nc(NC(C)C)n1 [r256] | – | – | – | – | – | – | CHR_Rat_Liver_3_NeoplasticLesion (Rat Liver; rat, chronic study): 0 |
| CCCC1COC(Cn2cncn2)(c2ccc(Cl)cc2Cl)O1 (centres unmarked) [r262] | – | – | – | – | – | – | NVS_NR_hAR (AR (androgen receptor)): 4.367; CHR_Rat_Liver_3_NeoplasticLesion (Rat Liver; rat, chronic study): 0 |
| CC(C)=CC1C(C(=O)OCc2coc(Cc3ccccc3)c2)C1(C)C (centres unmarked) [r280] | – | – | – | – | – | – | NVS_NR_hPPARg (PPARg (PPARG)): 4.616; CHR_Rat_Liver_3_NeoplasticLesion (Rat Liver; chronic study, rat liver): 0 |
| CCc1ccc(C(=O)NN(C(=O)c2cc(C)cc(C)c2)C(C)(C)C)cc1 [r290] | – | – | – | – | – | – | CHR_Rat_Liver_3_NeoplasticLesion (Rat Liver; chronic study, rat liver): 0 |
| CCc1nn(C)c(C(=O)NCc2ccc(C(C)(C)C)cc2)c1Cl [r291] | – | – | – | – | – | – | ATG_LXRb_TRANS (LXRb (NR1H2); HepG2 reporter): 6.337; CHR_Rat_Liver_3_NeoplasticLesion (Rat Liver; chronic study, rat liver): 6 |
| COc1cccc(C(=O)NN(C(=O)c2cc(C)cc(C)c2)C(C)(C)C)c1C [row 202] | – | – | – | – | – | – | CHR_Rat_Liver_3_NeoplasticLesion (Rat Liver; chronic rat study, liver): 0 |
| CCN(CC)C(=O)C(C)Oc1cccc2ccccc12 (centres unmarked) [row 219] | – | – | – | – | – | – | ATG_ERE_CIS [1]: 4.481; NVS_NR_hAR (AR (androgen receptor)): 5.12 |
| CC(C)Oc1cc(-n2nc(C(C)(C)C)oc2=O)c(Cl)cc1Cl [row 225] | – | – | – | – | – | – | CHR_Rat_Liver_3_NeoplasticLesion (Rat Liver; chronic rat study, liver): 6 |

Source: article PMC3038857, “Using Nuclear Receptor Activity to Stratify Hepatocarcinogens” (PLoS ONE, 2011)
